Molecular target: T1, ABL1 G250E (Homo sapiens, UniProt P00519, G250E)
T1 construct: purchased Thermo Fisher Scientific (Life Technologies) SelectScreen
Test: SelectScreen Z'LYTE
Format: biochemical
Summary of the method: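 Compound tested in SelectScreen activity assays, Z'LYTE for CSF1R, CDK1/cyclin B and MAP2K6 and Adapta for CAMK1. ATP for CAMK1 was listed as 10, and Km app was used for CSF1R. Results are expressed in percent.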

CN(C(=O)CN1CCOCC1)c1ccc2sc3c(-c4cccc5c(=O)cc(N6CC7CCC(C6)O7)oc45)cccc3c2c1 [NU5455]
inhibition at 1 µM: -8.5%
